Measured values reported in patent US9982017B2, “Synthetic apelin mimetics for the treatment of heart failure” (priority 2012, dated 2018).
Where two headings read alike, the source gives them in different places. *1 amine or outer side, *2 acyl side, *3 side chain or, on linkers, in order; H or OH if unused. Where a SMILES comes first, the peptide text is derived from it. Bridges are numbered along the chain shown (N, C = ends). [ ]: non-standard residue; d: D form. The star is where a group is joined. Palmitoyl = CCCCCCCCCCCCCCCC(=O)*; pGlu = O=C1CC[C@@H](C(=O)O)N1; CH2COCH2 = O=C(C[*:1])C[*:2]; Nle = CCCC[C@H](N)C(=O)O; AEEA = NCCOCCOCC(=O)O; Inp = O=C(O)C1CCNCC1

Assays:
[1] = Surrogate Activity-Based Plasma Stability Assay (calcium flux EC50 after incubation with 5% rat plasma); settings: not told
Method: (§1) The slope of this line, k, was determined by linear regression (Microsoft Excel). • Stability half-life was then calculated by the formula, t ½=0.693÷k Surrogate Activity-Based Plasma Stability Assay:
(§2) The calcium flux protocol described above was followed, with the following changes. The peptides were also incubated with 5% rat plasma (Bioreclamation # [sequence]-M, Na Heparin-treated). Readings were taken at time points t0 and t24 hrs, after incubation in a 37° C. tissue culture incubator. Peptide plasma half-life in minutes was estimated by calculating the following:
2) Calculate slope of value above and

[2] = biological target: T1, hAPJ (Homo sapiens, UniProt P35414); experiment: hAPJ Calcium Flux Assay; format: cell-based
T1 sequence (P35414 1-380): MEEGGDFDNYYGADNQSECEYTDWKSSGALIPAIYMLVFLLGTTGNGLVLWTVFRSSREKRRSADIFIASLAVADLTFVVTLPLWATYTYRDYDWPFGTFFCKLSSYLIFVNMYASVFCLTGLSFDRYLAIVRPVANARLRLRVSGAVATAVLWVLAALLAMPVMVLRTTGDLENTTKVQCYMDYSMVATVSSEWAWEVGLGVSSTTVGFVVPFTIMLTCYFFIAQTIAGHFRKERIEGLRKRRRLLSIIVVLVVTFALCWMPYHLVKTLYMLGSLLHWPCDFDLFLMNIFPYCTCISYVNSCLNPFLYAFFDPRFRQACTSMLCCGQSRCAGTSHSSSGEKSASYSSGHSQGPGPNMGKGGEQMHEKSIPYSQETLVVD
Method: Chem-5 APJ stable cells (Millipore # HTS068C) were plated in 384-well format with 10,000 cells/well in 25 ul growth media, then grown 24 hours in a 37° C. tissue culture incubator. One hour before the assay, 25 ul/well FLIPR Calcium 4 dye (Molecular Devices R8142) with 2.5 mM probenecid was added, and cells were incubated one hour in a 37° C. tissue culture incubator. Peptides were solubilized in HBSS, HEPES & 0.1% BSA buffer, and serially-diluted 10-fold, from 50 uM to 5 pM, in triplicate. FLIPR Tetra was used to add peptide to the cells with dye (1:5, for final peptide concentrations ranging from 10 uM to 1 pM). FLIPR dye inside the cells emitted fluorescence after binding to calcium, while fluorescence from outside the cells was masked. Fluorescence was measured using 470-495 excitation and 515-575 emission wavelengths on the FLIPR Tetra. Readings were done for 3 minutes total, beginning 10 seconds before the peptide addition. Maximum-minimum values were calculated and plotted for each peptide concentration, and Graph Pad prism software was used to calculate EC50 values at the curve inflection points, for calcium flux stimulation by peptides.

[3] = in vitro; settings: rat, not told
Method: as §1, §2
2) Calculate slope of value above and

[4] = Plasma Stability Assay (LC-MS); format: in vitro ADME; settings: male, Sprague-Dawley, heparinized rat plasma, 37° C., Table 3, read-out: Plasma stability t½
Method: • Working solution: 1 mg/mL test article is prepared in Milli-Q water • Extraction solution: Methanol:Acetonitrile:Water (1:1:1) with 0.1% Formic Acid and 400 ng/mL Glyburide. • Plasma: Male Sprague-Dawley rat plasma (with sodium heparin), purchased from Bioreclamation LLC (Liverpool, N.Y.). • Whole blood: Male Sprague Dawley whole blood (with sodium heparin), purchased from Bioreclamation LLC (Liverpool, N.Y.) • Lung homogenate: Male rat Sprague Dawley lung was purchased from Bioreclamation LLC (Liverpool, N.Y.). The lung was homogenized using polytron homogenizer after addition of 5× volume of 1×PBS. The homogenate was centrifuged at 9000 rpm for 10 min at 4° C. The supernatant was centrifuged again at 3000 rpm for 30 min to make a clear supernatant. Protein concentration was determined using a commercial kit (Pierce, Thermo Scientific). Sample Preparation Procedure:
Test article was prepared in one of the following biological matrices: heparinized rat plasma, heparinized rat whole blood or lung homogenate. The plasma and whole blood sample was prepared at 5000 ng/mL by adding 5 uL of 1 mg/mL Working solution to 995 uL of rat plasma or whole blood. Lung homogenate samples were prepared by diluting lung homogenate to 1 mg/ml protein concentration with phosphate buffered saline (PBS), followed by addition of 5 uL Working solution to 995 uL diluted lung homogenate. The samples were incubated at 37° C. with gentle shaking (65˜75 rpm) in a water bath incubator. At times 0 min, 5 min, 15 min, 30 min, 60 min, 120 and 240 min, 25 uL aliquots of incubation samples were transferred to 96-well plate and immediately protein precipitated using 150 uL of Extraction solution. After completion of incubation experiment, the sample plate was centrifuged at 4000 rpm at 4° C. for 10 minutes. Afterwards, a pipetting device (Tecan Temo) was used to tranfer the supernatants to another plate and add 50 uL of water to all samples. The plate was vortexed prior to LC-MS analysis. • LC-MS Analysis of Stability Samples • HPLC: Agilent 1290 HPLC with autosampler • Column: MAC-MOD ACE C18, 3 μm, 30 mm×2.1 mm i.d. • Mobile phase A: 0.1% Formic acid in acetonitrile • Mobile phase B: 0.1% Formic acid in water Gradient Program: […]

[5] = Surrogate activity-based Plasma stability t½
[6] = Surrogate Activity based Plasma stability t½

Row | Compound | half-life [1] | half-life [3, 5] | further results
1 | CCCC[C@@H]1NC(=O)[C@@H]2CCCN2C(=O)CNC(=O)[C@H](CCCCN)NC(=O)[C@H](Cc2cnc[nH]2)NC(=O)[C@@H](NC(=O)[C@H](CC(C)C)NC(=O)[C@H](CCCNC(=N)N)NC(=O)[C@@H]2CCCN2C(=O)[C@H](CCCNC(=N)N)NC(=O)[C@@H]2CCC(=O)N2)CSCC(=O)CSC[C@@H](C(=O)N[C@@H](Cc2ccccc2)C(=O)O)NC1=O [Example 64, (S)-2-((3S,6R,14R,17S,20S,28aS)-17-((1H-imidazol-5-yl)methyl)-20-(4-aminobutyl)-3-butyl-14-((S)-2-((S)-5-guanidino-2-((S)-1-((S)-5-guanidino-2-((S)-5-oxopyrrolidine-2-carboxamido)pentanoyl)pyrrolidine-2-carboxamido)pentanamido)-4-methylpentanamido)-1,4,10,15,18,21,24-heptaoxohexacosahydropyrrolo[2,1-i][1,23,4,7,10,13,16,19]dithiahexaazacyclohexacosine-6-carboxamido)-3-phenylpropanoic acid] ([pGlu]RPRLCHKGP[Nle]CF-OH; linker 6-12 via CH2COCH2) | 7.58 h | – | –
2 | CCCC[C@@H]1NC(=O)[C@@H]2CCCN2C(=O)CNC(=O)[C@H](CCCCN)NC(=O)[C@H](Cc2ccccc2)NC(=O)[C@@H]2CSSC[C@H](NC1=O)C(=O)N[C@@H](Cc1ccccc1)C(=O)NCC(=O)NCC(=O)N[C@@H](CCC(N)=O)C(=O)N[C@@H](CCCNC(=N)N)C(=O)N1CCC[C@H]1C(=O)N[C@@H](CCCNC(=N)N)C(=O)N[C@@H](CC(C)C)C(=O)N2 [Example 7, Q-R-P-R-L-C-F-K-G-P-Nle-C-F-G-G] (cyclo(CFGGQRPRLCFKGP[Nle]); disulfide 1-10) | > 16.7 h | – | EC50 [2]: 90.9 nM
3 | CCCCCCCCCCCCCCCC(=O)NCCOCCOCC(=O)N[C@@H](CCC(N)=O)C(=O)N[C@@H](CCCNC(=N)N)C(=O)N1CCC[C@H]1C(=O)N[C@@H](CCCNC(=N)N)C(=O)N[C@@H](CC(C)C)C(=O)N[C@H]1CSSC[C@@H](C(=O)N[C@@H](Cc2ccccc2)C(=O)O)NC(=O)[C@H](CCCC)NC(=O)[C@@H]2CCCN2C(=O)CNC(=O)[C@H](CCCCN)NC(=O)[C@H](Cc2c[nH]cn2)NC1=O [Example 24, Palmitoyl-O2Oc-Q-R-P-R-L-C-H-K-G-P-Nle-C-F-OH] ({Palmitoyl-AEEA}-QRPRLCHKGP[Nle]CF-OH; disulfide 6-12) | – | 5.06 h | EC50 ([2]; Chem-5 APJ stable cells, FLIPR Calcium 4 dye, read-out: hAPJ Ca^2+ Flux EC50): 32.7 nM
4 | CCCC[C@@H]1NC(=O)[C@@H]2CCCN2C(=O)CNC(=O)[C@H](CCCCN)NC(=O)[C@H](Cc2c[nH]cn2)NC(=O)[C@@H](NC(=O)[C@H](CC(C)C)NC(=O)[C@H](CCCNC(=N)N)NC(=O)[C@@H]2CCCN2C(=O)[C@H](CCCNC(=N)N)NC(=O)[C@@H](N)CCCNC(=N)N)CSSC[C@@H](C(=O)N[C@@H](Cc2ccccc2)C(=O)O)NC1=O [Example 17, H-R-R-P-R-L-C-H-K-G-P-Nle-C-F-OH] (H-RRPRLCHKGP[Nle]CF-OH; disulfide 6-12) | – | 0.235 h | half-life [3, 6]: 0.235 h; half-life at 5000 ng/mL [4]: 0.0383 h
5 | CCCC[C@@H]1NC(=O)[C@@H]2CCCN2C(=O)CNC(=O)[C@H](CCCCN)NC(=O)[C@@H]2CSSC[C@H](NC(=O)[C@H](CCCNC(=N)N)NC(=O)[C@@H]3CCC(=O)N3)C(=O)N[C@@H](CCCNC(=N)N)C(=O)N[C@@H](CC(C)C)C(=O)N[C@@H](CSSC[C@@H](C(=O)N[C@@H](Cc3ccccc3)C(=O)O)NC1=O)C(=O)N2 [Example 29, pE-R-C-R-L-C-C-K-G-P-Nle-C-F-OH] ([pGlu]RCRLCCKGP[Nle]CF-OH; disulfide 3-7, 6-12) | 3.61 h | – | –
6 | CCCC[C@@H]1NC(=O)[C@@H]2CCCN2C(=O)CNC(=O)[C@H](CCCCN)NC(=O)[C@H](Cc2c[nH]cn2)NC(=O)[C@@H](NC(=O)[C@H](CC(C)C)NC(=O)[C@H](CCCNC(=N)N)NC(=O)[C@@H]2CCCN2C(=O)[C@H](CCCNC(=N)N)NC(=O)C2CCNCC2)CSSC[C@@H](C(=O)N[C@@H](Cc2ccccc2)C(=O)O)NC1=O [Example 18, H-Isn-R-P-R-L-C-H-K-G-P-Nle-C-F-OH] (H-[Inp]RPRLCHKGP[Nle]CF-OH; disulfide 6-12) | – | 4.13 h | half-life [3, 6]: 4.13 h; half-life at 5000 ng/mL [4]: 3.67 h
7 | CCCC[C@@H]1NC(=O)[C@@H]2CCCN2C(=O)CNC(=O)[C@H](CCCCN)NC(=O)[C@@H]2CSSC[C@H](NC(=O)[C@@H]3CCCN3C(=O)[C@H](CCCNC(=N)N)NC(=O)[C@@H]3CCC(=O)N3)C(=O)N[C@@H](CC(C)C)C(=O)N[C@@H](CSSC[C@@H](C(=O)N[C@@H](Cc3ccccc3)C(=O)O)NC1=O)C(=O)N2 [Example 28, pE-R-P-C-L-C-C-K-G-P-Nle-C-F-OH] ([pGlu]RPCLCCKGP[Nle]CF-OH; disulfide 4-7, 6-12) | 7.34 h | – | –
